Measurements as given in patent US5332731A, “Cephalosporin derivatives” (Meiji Seika Kaisha, Ltd., priority 1989, dated 1994).
Values after ≈ are worked out from the molar mass of the structure shown.

Tests used:
Assay in all cases: antibacterial activity, MIC by standard serial dilution method
Type in all cases: cell-based
[1] = tested on: Citrobacter freundii GN346
Text: (§1) Antibacterial activity of Compounds Nos. 1, 3, 5, 7, 9, 11, 13, 15, 17, 19, 21, 23, 25, 27, 29, 31, 33, 35 and 37 indentified hereinbefore which are the particular examples of the new cephalosporin derivative of general formula (I) according to this invention and which are in the form of the free carboxylic acid was estimated by determining the minimum inhibitory concentrations (MIC., μg/ml) of these compounds against a variety of bacteria according to a standard serial dilution method.

Escherichia coli 255/S-1 = settings: 255/S1
Text: as §1

[2] = tested on: Enterobacter cloacae GN7471
Text: as §1

[3] = tested on: Serratia marcescens No. 1
Text: as §1

[4] = tested on: Proteus vulgaris GN76/C-1
Text: as §1

[5] = tested on: Staphylococcus epidermidis ATCC14990
Text: as §1

[6] = tested on: Klebsiella pneumoniae PCI602
Text: as §1

[7] = tested on: Escherichia coli W3630 RGN823; settings: W3630RGN823
Text: as §1

Escherichia coli 255 = tested on: Escherichia coli 255
Text: as §1

[8] = tested on: Serratia marcescens GN10857
Text: as §1

[9] = tested on: Citrobacter freundii GN346/16
Text: as §1

Marganella morganii 1510 = tested on: Marganella morganii 1510
Text: as §1

[10] = tested on: Escherichia coli NIHJ JC-2; settings: NIHJJC2
Text: as §1

[11] = tested on: Staphylococcus aureus 209P JC-1
Text: as §1

[12] = tested on: Enterobacter hirae ATCC8043
Text: as §1

Escherichia coli GN206 = tested on: Escherichia coli GN206
Text: as §1

[13] = tested on: Klebsiella pneumoniae GN69
Text: as §1

Proteus vulgaris GN76 = tested on: Proteus vulgaris GN76
Text: as §1

[14] = tested on: Pseudomonas aeruginosa GN10362
Text: as §1

[15] = tested on: Marganella morganii 1510/S-1
Text: as §1

[16] = tested on: Entrobacter faecalis W-73
Text: as §1

[17] = tested on: Enterobacter cloacae G-0008; settings: G0008
Text: as §1

SMILES	MIC [1] [µg/mL]	MIC (Escherichia coli 255/S-1) [µg/mL]	MIC [2] [µg/mL]	MIC [3] [µg/mL]	MIC [4] [µg/mL]	MIC [5] [µg/mL]	MIC [6] [µg/mL]	MIC [7] [µg/mL]	MIC (Escherichia coli 255) [µg/mL]	MIC [8] [µg/mL]	MIC [9] [µg/mL]	MIC (Marganella morganii 1510) [µg/mL]	MIC [10] [µg/mL]	MIC [11] [µg/mL]	MIC [12] [µg/mL]	MIC (Escherichia coli GN206) [µg/mL]	MIC [13] [µg/mL]	MIC (Proteus vulgaris GN76) [µg/mL]	MIC [14] [µg/mL]	MIC [15] [µg/mL]	also measured
CO/N=C(\C(=O)NC1C(=O)N2C(C(=O)O)=C(SC3CCOC3)CS[C@H]12)c1csc(N)n1 (some centres unmarked) [Compound No. 3, 7-[(Z)-2-(2-aminothiazol-4-yl)-2-methoxyiminoacetamido]-3-(tetrahydrofuran-3-yl)thio-3-cephem-4-carboxylic acid]	> 100	0.39 (≈ 0.803 µM)	50 (≈ 103 µM)	12.5 (≈ 25.7 µM)	1.56 (≈ 3.21 µM)	0.39 (≈ 0.803 µM)	0.2 (≈ 0.412 µM)	0.78 (≈ 1.61 µM)	50 (≈ 103 µM)	100 (≈ 206 µM)	3.13 (≈ 6.45 µM)	25 (≈ 51.5 µM)	0.39 (≈ 0.803 µM)	0.2 (≈ 0.412 µM)	12.5 (≈ 25.7 µM)	12.5 (≈ 25.7 µM)	0.2 (≈ 0.412 µM)	0.1 (≈ 0.206 µM)	> 100	0.2 (≈ 0.412 µM)	MIC [16]: > 100 µg/mL; MIC [17]: 12.5 µg/mL (≈ 25.7 µM)
Nc1nc(/C(=N/O)C(=O)NC2C(=O)N3C(C(=O)O)=C(SCC4CCOCC4)CS[C@H]23)cs1 (some centres unmarked) [Compound No. 37, 7-[(Z)-2-(2-aminothiazol-4-yl)-2-hydroxyiminoacetamido]-3-(tetrahydropyran-4-yl)methylthio-3-cephem-4-carboxylic acid]	> 100	3.13 (≈ 6.27 µM)	100 (≈ 200 µM)	12.5 (≈ 25 µM)	50 (≈ 100 µM)	0.39 (≈ 0.781 µM)	3.13 (≈ 6.27 µM)	6.25 (≈ 12.5 µM)	50 (≈ 100 µM)	> 100	6.25 (≈ 12.5 µM)	100 (≈ 200 µM)	3.13 (≈ 6.27 µM)	0.39 (≈ 0.781 µM)	50 (≈ 100 µM)	12.5 (≈ 25 µM)	0.1 (≈ 0.2 µM)	3.13 (≈ 6.27 µM)	> 100	0.78 (≈ 1.56 µM)	MIC [16]: 25 µg/mL (≈ 50 µM); MIC [17]: 3.13 µg/mL (≈ 6.27 µM)
CO/N=C(\C(=O)NC1C(=O)N2C(C(=O)O)=C(SCC3CCOCC3)CS[C@H]12)c1csc(N)n1 (some centres unmarked) [Compound No. 31, 7-[(Z)-2-(2-aminothiazol-4-yl)-2-methoxyiminoacetamido]-3-(tetrahydropyran-4-yl)methylthio-3-cephem-4-carboxylic acid]	> 100	1.56 (≈ 3.04 µM)	50 (≈ 97.3 µM)	3.13 (≈ 6.09 µM)	12.5 (≈ 24.3 µM)	1.56 (≈ 3.04 µM)	1.56 (≈ 3.04 µM)	1.56 (≈ 3.04 µM)	25 (≈ 48.7 µM)	25 (≈ 48.7 µM)	3.13 (≈ 6.09 µM)	100 (≈ 195 µM)	1.56 (≈ 3.04 µM)	1.56 (≈ 3.04 µM)	> 100	6.25 (≈ 12.2 µM)	0.78 (≈ 1.52 µM)	0.78 (≈ 1.52 µM)	100 (≈ 195 µM)	0.78 (≈ 1.52 µM)	MIC [16]: > 100 µg/mL; MIC [17]: 1.56 µg/mL (≈ 3.04 µM)
Nc1nc(/C(=N/O)C(=O)NC2C(=O)N3C(C(=O)O)=C(SCC4CCCCO4)CS[C@H]23)cs1 (some centres unmarked) [Compound No. 25, 7-[(Z)-2-(2-aminothiazol-4-yl)-2-hydroxyiminoacetamido]-3-(tetrahydropyran-2-yl)methylthio-3-cephem-4-carboxylic acid]	> 100	12.5 (≈ 25 µM)	100 (≈ 200 µM)	6.25 (≈ 12.5 µM)	12.5 (≈ 25 µM)	1.56 (≈ 3.12 µM)	12.5 (≈ 25 µM)	12.5 (≈ 25 µM)	100 (≈ 200 µM)	> 100	12.5 (≈ 25 µM)	100 (≈ 200 µM)	12.5 (≈ 25 µM)	1.56 (≈ 3.12 µM)	12.5 (≈ 25 µM)	12.5 (≈ 25 µM)	12.5 (≈ 25 µM)	3.13 (≈ 6.27 µM)	> 100	0.78 (≈ 1.56 µM)	MIC [16]: 12.5 µg/mL (≈ 25 µM); MIC [17]: 25 µg/mL (≈ 50 µM)
CO/N=C(\C(=O)NC1C(=O)N2C(C(=O)O)=C(SCC3CCCO3)CS[C@H]12)c1csc(N)n1 (some centres unmarked) [Compound No. 1, 7-[(Z)-2-(2-aminothiazol-4-yl)-2-methoxyiminoacetamido]-3-tetrahydrofurfurylthio-3-cephem-4-carboxylic acid]	> 100	0.78 (≈ 1.56 µM)	50 (≈ 100 µM)	0.78 (≈ 1.56 µM)	3.13 (≈ 6.27 µM)	0.78 (≈ 1.56 µM)	0.78 (≈ 1.56 µM)	1.56 (≈ 3.12 µM)	25 (≈ 50 µM)	100 (≈ 200 µM)	3.13 (≈ 6.27 µM)	50 (≈ 100 µM)	1.56 (≈ 3.12 µM)	0.2 (≈ 0.4 µM)	12.5 (≈ 25 µM)	6.25 (≈ 12.5 µM)	0.39 (≈ 0.781 µM)	0.2 (≈ 0.4 µM)	> 100	0.39 (≈ 0.781 µM)	MIC [16]: 100 µg/mL (≈ 200 µM); MIC [17]: 1.56 µg/mL (≈ 3.12 µM)
